Source: the NIST ThermoML archive (doi:10.1016/j.jct.2017.08.002)

Test: mn = molality of the nth substance listed, in mol/kg
Settings: 101.33 kPa, Liquid; for speed of sound: Frequency=2 MHz, Linear variable-path acoustic interferometer; for mass density: Pycnometric method

O=C([O-])c1ccccc1O.[Na+] [sodium salicylate] + O
Settings	mass density, 288.15 K [kg/m3]	mass density, 298.15 K [kg/m3]	mass density, 308.15 K [kg/m3]	speed of sound, 288.15 K [m/s]	speed of sound, 298.15 K [m/s]	speed of sound, 308.15 K [m/s]
m1 = 0.01	–	–	994.69	–	–	1520.8
m1 = 0.0101	999.8	997.73	–	1466.8	1497.6	–
m1 = 0.0221	1000.62	998.51	995.46	1467.9	1498.8	1521.9
m1 = 0.0307	1001.19	999.07	–	1468.7	1499.6	–
m1 = 0.0333	–	–	996.16	–	–	1523
m1 = 0.04	–	–	996.59	–	–	1523.6
m1 = 0.0448	1002.19	1000	–	1470	1501	–
m1 = 0.0451	–	–	996.9	–	–	1524.2
m1 = 0.0501	1002.51	1000.34	997.24	1470.5	1501.5	1524.6
m1 = 0.0546	1002.85	1000.67	–	1470.8	1501.9	–
m1 = 0.0572	–	–	997.65	–	–	1525.3
m1 = 0.06	1003.2	1001.01	–	1471.4	1502.4	–
m1 = 0.0667	1003.66	–	–	1472	–	–
m1 = 0.0702	–	–	998.5	–	–	1526.5
m1 = 0.0704	1003.92	1001.66	–	1472.3	1503.5	–
m1 = 0.0802	1004.55	1002.35	999.1	1473.2	1504.4	1527.5
m1 = 0.0848	1004.87	1002.59	–	1473.6	1504.9	–
m1 = 0.0857	–	–	999.47	–	–	1528
m1 = 0.0906	1005.23	–	999.8	1474.2	–	1528.4
m1 = 0.0907	–	1002.99	–	–	1505.4	–
m1 = 0.0951	–	1003.26	1000.07	–	1505.8	1528.9
m1 = 0.1018	–	1003.68	–	–	1506.5	–
m1 = 0.1019	1006	–	–	1475.2	–	–
m1 = 0.1023	–	–	1000.5	–	–	1529.6
